For orientation: IC50 means the concentration that gives 50% inhibition.

In this assay the test system is mammalian GPAT. In words: GPAT inhibition in vitro. The assay is classed as biochemical. The following applies: for IC50: read-out: IC50 (µM) ± SD; for fold increase in inhibitory activity compared to 1c: relative to 1c; for fold decrease in inhibition compared to corresponding linker-free analog: 15a vs 13d, 18b vs 12h.

Like-named read-outs stand apart in the source and are kept apart here.

In the case of `CCCCCCCCS(=O)(=O)Nc1ccccc1C(=O)O` [Compound 1c, 2-(octanesulfonamido)benzoic acid], the “inhibitory activity against GPAT (in words)” value (in vitro) is “comparable to 1b”.
Turning to `CCCCCCCCS(=O)(=O)Nc1cc(-c2ccccc2O)ccc1C(=O)O` [Compound 12k], the IC50 (GPAT inhibition by 4-substituted derivatives (Table 1)) stood at 63.1 ± 5.5 µM.
As to `CCCCCCCCS(=O)(=O)Nc1ccc(-c2ccccc2Cl)cc1C(=O)O` [Compound 13a], the IC50 (GPAT inhibition by 5-substituted derivatives (Table 2)) was 14.4 ± 1.3 µM.
On to `CCCCCCCCS(=O)(=O)Nc1ccc(-c2cccc(Cl)c2)cc1C(=O)O` [Compound 13b], for which the “fold increase in inhibitory activity compared to 1c” value is reported as 2.9 fold.
Regarding `CCCCCCCCS(=O)(=O)Nc1ccc(-c2ccc(CCCC)cc2)cc1C(=O)O` [Compound 13d], the “fold increase in inhibitory activity compared to 1c” value came out at 2.9 fold.
Same read-out and setting: next, `CCCCCCCCS(=O)(=O)Nc1ccc(-c2ccccc2-c2ccccc2)cc1C(=O)O` [Compound 13e]: 2.5 fold.
As to `CCCCCCCCS(=O)(=O)Nc1cc(C(=O)c2ccc(-c3ccccc3)cc2)ccc1C(=O)O` [Compound 14b, 4-([1,1'-biphenyl]-4-carbonyl)-2-(octanesulfonamido)benzoic acid], the “fold increase in inhibitory activity compared to 1c” value stood at 3 fold. For the same compound, the “fold more potent inhibition compared to linker-free analog 13f” value (relative to 13f) was 2 fold.
As for `CCCCCCCCS(=O)(=O)Nc1ccc(C(=O)c2ccc(CCCC)cc2)cc1C(=O)O` [Compound 15a], the “fold decrease in inhibition compared to corresponding linker-free analog” value worked out at 3.5 fold.
For `CCCCCCCCS(=O)(=O)Nc1cc(CCc2ccc(OC)cc2)ccc1C(=O)O` [Compound 18b], the “fold decrease in inhibition compared to corresponding linker-free analog” value turned out to be 3.2 fold.
